For one compound, ED50 results are on record in US4575497A, “3, 3", 4"-Tri-O-acylspiramycin I” (Kyowa Hakko Kogyo Co., Ltd, priority 1983, dated 1986).

The test concerns Streptococcus pneumoniae Type III. As to the kind of experiment: Healing effect on test infection in mice, ED50 (Reference Example 1). It counts as in vivo. Conditions: oral, 0.3% CMC, just after i.p. inoculation; Probit method, survived animals on the 7th day. The source says:
Comparison of healing effects of acetylspiramycin and 3, 3", 4"-tri-O-acetylspiramycin I on test infection in mice
Animal : ddY-strain male mice, 19±lg, one group consisting of ten mice.
Test bacterium : Streptococcus pneumoniae Type III. Inoculation rate : 1.1×10^2 cfu/mouse.
The predetermined amount of the precultured test bacteria was inoculated via i.p..
Medicament administration : Each of the medicaments was suspended in 0.3% CMC, and orally administered just after the inoculation of bacteria.

For `COC1C(OC(C)=O)CC(=O)OC(C)CC=CC=CC(OC2CCC(N(C)C)C(C)O2)C(C)CC(CC=O)C1OC1OC(C)C(OC2CC(C)(OC(C)=O)C(OC(C)=O)C(C)O2)C(N(C)C)C1O` (stereo not shown) [3, 3", 4"-tri-O-acetylspiramycin, 3, 3", 4"-tri-O-acetylspiramycin I], the ED50 amounted to 69.5 mg/kg.
